Reference: patent publication US10047051B2, “Substituted pyridines and method of use” (AbbVie S.á{acute over (.)}r.l., priority 2015, dated 2018)
pEC50: −log10 of the molar value.

Target: ΔF508 CFTR (Homo sapiens, UniProt P13569, DEL508-508)
Assay: TECC assay, FRT-CFTR ΔF508 protocol
Type: cell-based
Conditions: FRT cells stably transfected with ΔF508 CFTR, 3 μM VX809 24 hours, increase in transepithelial conductance (Gt), high expression cells
Method: For ΔF508 recordings, Fischer Rat Thyroid (FRT) cells stably transfected with ΔF508 CFTR (cell line from Rosalind Franklin University of Medicine and Science, North Chicago, Ill.) are plated on Transwell® supports (Costar 6.5 mm diameter, 0.4 μm pore size Cat n#3378). The cells are grown for 8-10 days under liquid-liquid interface conditions prior to electrophysiological readings. The differentiated cells are treated with 3 μM VX809 (2626 South Loop West, Suite 225, Houston, Tex. 77054 USA, Cat n# S1565) to allow sufficient expression of properly folded CFTR protein on the membrane (24 hours basolateral treatment), prior to electrophysiological recordings. For electrophysiological recording, the FRT-ΔF508 cells are mounted in the TECC heating plate for electrophysiological measurement and kept at 37° C. The epithelia are bathed in HEPES buffered culturing medium without FBS on both the basolateral and apical sides. Apical amiloride is used to inhibit the endogenous ENaC currents while forkolin is applied on both apical and basolateral side to stimulate CFTR. After forskolin triggering, compounds are added on both sides to test their potential for increasing CFTR gating. Measurements are done during a 10 minute timeframe with recordings every 2 minutes. The increase in transepithelial conductance (Gt) is used as a measure for the increased CFTR activity, EC50 values can be generated by measuring impact of different concentrations of compound on Gt of the cells, for this purpose each transwell is treated with a different compound concentration. Inh-172, an inhibitor specific for CFTR, is used to test the specificity of the tested compounds.

ΔF508 CFTR, sequence (P13569 with tags, fused parts or gaps DEL508-508): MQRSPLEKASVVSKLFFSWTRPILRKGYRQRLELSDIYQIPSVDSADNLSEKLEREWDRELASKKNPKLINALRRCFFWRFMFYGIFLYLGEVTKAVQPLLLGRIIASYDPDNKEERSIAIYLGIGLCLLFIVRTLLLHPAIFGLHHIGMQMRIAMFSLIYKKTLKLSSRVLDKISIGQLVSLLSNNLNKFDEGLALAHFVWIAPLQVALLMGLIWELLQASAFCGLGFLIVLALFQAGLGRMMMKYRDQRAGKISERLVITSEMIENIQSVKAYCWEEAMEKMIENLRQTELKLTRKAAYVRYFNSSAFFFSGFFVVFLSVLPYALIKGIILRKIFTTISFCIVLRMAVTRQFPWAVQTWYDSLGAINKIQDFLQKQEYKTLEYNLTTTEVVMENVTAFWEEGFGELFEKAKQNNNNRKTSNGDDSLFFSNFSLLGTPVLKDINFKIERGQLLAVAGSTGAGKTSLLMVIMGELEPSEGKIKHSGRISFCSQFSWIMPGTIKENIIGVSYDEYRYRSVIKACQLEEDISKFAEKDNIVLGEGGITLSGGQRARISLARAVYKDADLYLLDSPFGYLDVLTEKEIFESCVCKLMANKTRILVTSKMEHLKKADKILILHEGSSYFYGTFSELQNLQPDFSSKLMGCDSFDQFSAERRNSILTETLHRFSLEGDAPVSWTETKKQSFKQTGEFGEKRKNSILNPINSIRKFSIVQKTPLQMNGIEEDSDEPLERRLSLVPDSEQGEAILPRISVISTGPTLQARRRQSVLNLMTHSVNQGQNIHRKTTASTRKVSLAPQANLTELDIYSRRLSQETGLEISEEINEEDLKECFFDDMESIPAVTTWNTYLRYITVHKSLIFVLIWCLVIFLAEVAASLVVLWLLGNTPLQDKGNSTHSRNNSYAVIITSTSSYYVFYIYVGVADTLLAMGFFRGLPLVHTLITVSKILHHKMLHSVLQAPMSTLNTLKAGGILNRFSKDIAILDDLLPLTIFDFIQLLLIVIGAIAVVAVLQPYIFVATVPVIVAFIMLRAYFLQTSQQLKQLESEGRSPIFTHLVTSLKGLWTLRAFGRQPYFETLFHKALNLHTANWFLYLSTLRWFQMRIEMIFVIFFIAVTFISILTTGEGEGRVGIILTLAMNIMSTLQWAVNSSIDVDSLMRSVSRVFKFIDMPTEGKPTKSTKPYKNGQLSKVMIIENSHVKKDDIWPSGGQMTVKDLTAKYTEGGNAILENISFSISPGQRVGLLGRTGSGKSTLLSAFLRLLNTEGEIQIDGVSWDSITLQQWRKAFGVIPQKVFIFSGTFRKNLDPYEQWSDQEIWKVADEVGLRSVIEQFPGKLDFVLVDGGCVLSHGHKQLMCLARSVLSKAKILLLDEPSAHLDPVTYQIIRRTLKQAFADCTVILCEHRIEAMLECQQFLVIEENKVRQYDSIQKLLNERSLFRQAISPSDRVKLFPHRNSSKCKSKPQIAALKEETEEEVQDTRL

SMILES | pEC50
CC(C)(O)CNC(=O)c1ncc(S(=O)(=O)c2ccc(OC(F)(F)F)cc2)cc1N [Compound 1, 3-amino-N-(2-hydroxy-2-methylpropyl)-5-{[4-(trifluoromethoxy)phenyl]sulfonyl}pyridine-2-carboxamide] | 6.75
Nc1cc(S(=O)(=O)c2ccc(F)cc2)cnc1C(=O)NC[C@@H](O)C(F)(F)F [Compound 36, 3-amino-5-[(4-fluorophenyl)sulfonyl]-N-[(2R)-3,3,3-trifluoro-2-hydroxypropyl]pyridine-2-carboxamide] | 7.20

The next lines start with the values.

pEC50 | SMILES
7.15 | CC(O)(CNC(=O)c1ncc(S(=O)(=O)c2ccc(OC(F)(F)F)cc2)cc1N)C(F)(F)F (stereo not drawn) [Compound 2, 3-amino-N-(3,3,3-trifluoro-2-hydroxy-2-methylpropyl)-5-{[4-(trifluoromethoxy)phenyl]sulfonyl}pyridine-2-carboxamide]
7.98 | Nc1cc(S(=O)(=O)c2ccc(OC(F)(F)F)cc2)cnc1C(=O)NC[C@@H](O)C(F)(F)F [Compound 37, 3-amino-N-[(2R)-3,3,3-trifluoro-2-hydroxypropyl]-5-{[4-(trifluoromethoxy)phenyl]sulfonyl}pyridine-2-carboxamide]

Target: T1, CFTR G551D/ΔF508 (Homo sapiens, UniProt P13569, G551D)
T1 construct: host or cells: primary human bronchial epithelial cells from CF patients heterozygous G551D/ΔF508, no corrector pre-treatment
Assay: TECC assay, primary bronchial epithelial cells, CFTR G551D/ΔF508
Type: cell-based
Conditions: primary bronchial epithelial cells heterozygous G551D/ΔF508, acute mode, increase in Isc after forskolin
Method: The TECC (Tranepithelial Clamp Circuit, EP-design) assay measures the functionality of the cystic fibrosis Transmembrane Conductance regulator (CFTR) by measuring the short circuit current (Isc) generated over the basolateral and apical membrane of lung epithelial cells. In TECC the transepithelial potential PD and transepithelial resistance (Rt) are measured in an open circuit and transformed to Isc using Ohm's law. 24 Wells can be measured simultaneously allowing a higher throughput compared to Ussing chambers.
For this purpose, bronchial epithelial cells isolated from CF patients homozygous for the CFTR ΔF508 mutation (hAEC-CF, Epithelix) are plated on type IV collagen-coated Transwell® supports (Costar). Human airway epithelia are generated by provision of an air-liquid interface for 21 days to form well-differentiated polarized cultures that resemble in vivo pseudo-stratified ciliated epithelium (Fulcher, M. L., Gabriel, S., Burns, K. A., Yankaskas, J. R., Randell, S. H., 2005. Well-differentiated human airway epithelial cell cultures. Methods Mol. Med. 107, 183-206). In the case of the homozygous ΔF508 CFTR samples, the differentiated cells are treated with 3 μM VX809 (2626 South Loop West, Suite 225, Houston, Tex. 77054 USA, Cat n# S1565) to allow sufficient expression of properly folded CFTR protein on the membrane (48 hours basolateral treatment and 24 hours apical treatment), prior to electrophysiological recordings. For heterozygous G551D/ΔF508, differentiated cells are used as such for the recordings.
Information on the compounds can be retrieved on the homozygous ΔF508 CFTR samples looking at increased CFTR activity when compounds are added in an acute mode or in a chronic mode. On G551D/ΔF508 CFTR heterozygous samples compounds are added in an acute mode to the differentiated cells.
For the acute mode, for electrophysiological recording, the human airway epithelia are mounted in the TECC heating plate for electrophysiological measurement and kept at 37° C. The epithelia are bathed in a NaCl-Ringer solution (120 mM NaCl, 25 mM NaHCO3, 1.2 mM CaCl2, 1.2 mM MgCl2, 0.8 mM KH2PO4, 0.8 mM K2HPO4, pH 7.4, 5 mM glucose) on both the basolateral and apical sides. Apical amiloride is used to inhibit the endogenous ENaC currents while forkolin is applied on both apical and basolateral side to stimulate CFTR. After forskolin triggering, compounds are added on both sides to test their potential for increasing CFTR gating. Measurements are done during a 20 minute timeframe with recordings every 2 minutes. The increase in Isc is used as a measure for the increased CFTR activity, EC50 values can be generated by measuring impact of different concentrations of compound on Isc on primary cells, for this purpose each transwell is treated with a different compound concentration. Inh-172, an inhibitor specific for CFTR, is used to test the specificity of the tested compounds.
When subjected to this protocol, the following values were obtained. The difference between ΔIsc measured as DMSO (baseline), and the ΔIsc measured with the compound tested.

T1 sequence (P13569 whole entry F508del/G551D): as the sequence (P13569 with tags, fused parts or gaps DEL508-508) above, with G550D counted along it

SMILES | pEC50
Nc1cc(S(=O)(=O)c2ccc(OC(F)(F)F)cc2)cnc1C(=O)NCCO [Compound 14, 3-amino-N-(2-hydroxyethyl)-5-{[4-(trifluoromethoxy)phenyl]sulfonyl}pyridine-2-carboxamide] | 5.28
C[C@H](O)CNC(=O)c1ncc(S(=O)(=O)c2ccc(OC(F)(F)F)cc2)cc1N [Compound 21, 3-amino-N-[(2S)-2-hydroxypropyl]-5-{[4-(trifluoromethoxy)phenyl]sulfonyl}pyridine-2-carboxamide] | 6.07
Nc1cc(S(=O)(=O)c2ccc(OC(F)(F)F)cc2)cnc1C(=O)NCC(O)COCC1CC1 (stereo not drawn) [Compound 31, 3-amino-N-[3-(cyclopropylmethoxy)-2-hydroxypropyl]-5-{[4-(trifluoromethoxy)phenyl]sulfonyl}pyridine-2-carboxamide] | 6.20
Nc1cc(S(=O)(=O)c2ccc(F)cc2)cnc1C(=O)NC[C@@H](O)C(F)(F)F [Compound 36, 3-amino-5-[(4-fluorophenyl)sulfonyl]-N-[(2R)-3,3,3-trifluoro-2-hydroxypropyl]pyridine-2-carboxamide] | 5.99
Nc1cc(S(=O)(=O)c2ccc(OC(F)(F)F)cc2)cnc1C(=O)N1CC(F)(F)C1 [Compound 40, (3-amino-5-{[4-(trifluoromethoxy)phenyl]sulfonyl}pyridin-2-yl)(3,3-difluoroazetidin-1-yl)methanone] | 6.35
C[C@H](O)CNC(=O)c1ncc(S(=O)(=O)c2ccc(C(F)(F)F)cc2)cc1N [Compound 100, 3-amino-N-[(2S)-2-hydroxypropyl]-5-{[4-(trifluoromethyl)phenyl]sulfonyl}pyridine-2-carboxamide] | 5.62

Continued, values first:

pEC50 | SMILES
6.63 | Nc1cc(S(=O)(=O)c2ccc(OC(F)(F)F)cc2)cnc1C(=O)NC[C@@H](O)C(F)(F)F [Compound 37, 3-amino-N-[(2R)-3,3,3-trifluoro-2-hydroxypropyl]-5-{[4-(trifluoromethoxy)phenyl]sulfonyl}pyridine-2-carboxamide]
5.45 | COC[C@H](O)CNC(=O)c1ncc(S(=O)(=O)c2ccc(C(F)(F)F)cc2)cc1N [Compound 70, 3-amino-N-[(2R)-2-hydroxy-3-methoxypropyl]-5-{[4-(trifluoromethyl)phenyl]sulfonyl}pyridine-2-carboxamide]
